Assay results taken from ChEMBL document CHEMBL5543142, “Discovery of YFJ-36: Design, Synthesis, and Antibacterial Activities of Catechol-Conjugated β-Lactams against Gram-Negative Bacteria” (J Med Chem, 2024).

Assays:
[1] = system: Klebsiella pneumoniae; assay: Antibacterial activity against Klebsiella pneumoniae ATCC BAA-1898 assessed as inhibition of bacterial growth incubated for 18 to 20 hrs in presence of CAMHB medium by two fold serial dilution assay; type: functional; details: time 18-20 hrs
[2] = system: Escherichia coli; assay: Antibacterial activity against Escherichia coli NCTC-13353 assessed as inhibition of bacterial growth incubated for 18 to 20 hrs in presence of iron-depleted CAMHB medium by two fold serial dilution assay; type: functional; details: time 18-20 hrs
[3] = system: Escherichia coli; assay: Antibacterial activity against Escherichia coli ATCC-35218 assessed as inhibition of bacterial growth incubated for 18 to 20 hrs in presence of iron-depleted CAMHB medium by two fold serial dilution assay; type: functional; details: time 18-20 hrs
[4] = system: Escherichia coli; assay: Antibacterial activity against Escherichia coli NCTC-13353 assessed as inhibition of bacterial growth incubated for 18 to 20 hrs in presence of CAMHB medium by two fold serial dilution assay; type: functional; details: time 18-20 hrs
[5] = system: Acinetobacter baumannii; assay: Antibacterial activity against OXA-23 producing multidrug-resistant Acinetobacter baumannii clinical isolate 17-5 assessed as inhibition of bacterial growth incubated for 18 to 20 hrs by two fold serial dilution assay; type: functional; details: time 18-20 hrs
[6] = system: Klebsiella pneumoniae; assay: Antibacterial activity against KPC-2 producing multidrug-resistant Klebsiella pneumoniae clinical isolate 15-2 assessed as inhibition of bacterial growth incubated for 18 to 20 hrs by two fold serial dilution assay; type: functional; details: time 18-20 hrs
[7] = system: Pseudomonas aeruginosa; assay: Antibacterial activity against IMP-4 producing multidrug-resistant Pseudomonas aeruginosa clinical isolate 17-1 assessed as inhibition of bacterial growth incubated for 18 to 20 hrs by two fold serial dilution assay; type: functional; details: time 18-20 hrs
[8] = system: Acinetobacter baumannii; assay: Antibacterial activity against OXA-23 producing multidrug-resistant Acinetobacter baumannii clinical isolate 17-3 assessed as inhibition of bacterial growth incubated for 18 to 20 hrs by two fold serial dilution assay; type: functional; details: time 18-20 hrs
[9] = system: Escherichia coli; assay: Antibacterial activity against Escherichia coli ATCC-35218 assessed as inhibition of bacterial growth incubated for 18 to 20 hrs in presence of CAMHB medium by two fold serial dilution assay; type: functional; details: time 18-20 hrs
[10] = molecular target: Voltage-gated inwardly rectifying potassium channel KCNH2 (Homo sapiens, UniProt Q12809); assay: Inhibition of hERG by whole cell Qpatch assay; type: toxicity
[11] = system: Klebsiella pneumoniae; assay: Antibacterial activity against KPC-2 producing multidrug-resistant Klebsiella pneumoniae clinical isolate 15-1 assessed as inhibition of bacterial growth incubated for 18 to 20 hrs by two fold serial dilution assay; type: functional; details: time 18-20 hrs
[12] = system: Pseudomonas aeruginosa; assay: Antibacterial activity against IMP-4 producing multidrug-resistant Pseudomonas aeruginosa clinical isolate 19-5 assessed as inhibition of bacterial growth incubated for 18 to 20 hrs by two fold serial dilution assay; type: functional; details: time 18-20 hrs
[13] = system: Klebsiella pneumoniae; assay: Antibacterial activity against KPC-2 producing multidrug-resistant Klebsiella pneumoniae clinical isolate 15-3 assessed as inhibition of bacterial growth incubated for 18 to 20 hrs by two fold serial dilution assay; type: functional; details: time 18-20 hrs
[14] = system: Pseudomonas aeruginosa; assay: Antibacterial activity against IMP-4 producing multidrug-resistant Pseudomonas aeruginosa clinical isolate 17-13 assessed as inhibition of bacterial growth incubated for 18 to 20 hrs by two fold serial dilution assay; type: functional; details: time 18-20 hrs
[15] = system: Acinetobacter baumannii; assay: Antibacterial activity against OXA-23 producing multidrug-resistant Acinetobacter baumannii clinical isolate 17-8 assessed as inhibition of bacterial growth incubated for 18 to 20 hrs by two fold serial dilution assay; type: functional; details: time 18-20 hrs
[16] = system: Escherichia coli; assay: Antibacterial activity against ESBL-producing multidrug-resistant Escherichia coli clinical isolate 14-2 assessed as inhibition of bacterial growth incubated for 18 to 20 hrs by two fold serial dilution assay; type: functional; details: time 18-20 hrs
[17] = system: Acinetobacter baumannii; assay: Antibacterial activity against OXA-23 producing multidrug-resistant Acinetobacter baumannii clinical isolate 17-7 assessed as inhibition of bacterial growth incubated for 18 to 20 hrs by two fold serial dilution assay; type: functional; details: time 18-20 hrs
[18] = system: Acinetobacter baumannii; assay: Antibacterial activity against OXA-23 producing multidrug-resistant Acinetobacter baumannii clinical isolate 17-6 assessed as inhibition of bacterial growth incubated for 18 to 20 hrs by two fold serial dilution assay; type: functional; details: time 18-20 hrs
[19] = system: Klebsiella pneumoniae; assay: Antibacterial activity against KPC-2 producing multidrug-resistant Klebsiella pneumoniae clinical isolate 15-5 assessed as inhibition of bacterial growth incubated for 18 to 20 hrs by two fold serial dilution assay; type: functional; details: time 18-20 hrs
[20] = system: Escherichia coli; assay: Antibacterial activity against Escherichia coli ATCC35218 assessed as inhibition of bacterial growth incubated for 18 to 20 hrs by two fold serial dilution assay; type: functional; details: time 18-20 hrs
[21] = system: Escherichia coli; assay: Antibacterial activity against ESBL-producing multidrug-resistant Escherichia coli clinical isolate 14-4 assessed as inhibition of bacterial growth incubated for 18 to 20 hrs by two fold serial dilution assay; type: functional; details: time 18-20 hrs
[22] = system: Escherichia coli; assay: Antibacterial activity against ESBL-producing multidrug-resistant Escherichia coli clinical isolate 14-1 assessed as inhibition of bacterial growth incubated for 18 to 20 hrs by two fold serial dilution assay; type: functional; details: time 18-20 hrs
[23] = system: Pseudomonas aeruginosa; assay: Antibacterial activity against IMP-4 producing multidrug-resistant Pseudomonas aeruginosa clinical isolate 19-1 assessed as inhibition of bacterial growth incubated for 18 to 20 hrs by two fold serial dilution assay; type: functional; details: time 18-20 hrs
[24] = system: Pseudomonas aeruginosa; assay: Antibacterial activity against IMP-4 producing multidrug-resistant Pseudomonas aeruginosa clinical isolate 19-17 assessed as inhibition of bacterial growth incubated for 18 to 20 hrs by two fold serial dilution assay; type: functional; details: time 18-20 hrs
[25] = system: Acinetobacter baumannii; assay: Antibacterial activity against OXA-23 producing multidrug-resistant Acinetobacter baumannii clinical isolate 17-2 assessed as inhibition of bacterial growth incubated for 18 to 20 hrs by two fold serial dilution assay; type: functional; details: time 18-20 hrs
[26] = molecular target: hERG (KCNH2) (Homo sapiens, UniProt Q12809); assay: Inhibition of hERG at 40 uM by whole cell Qpatch assay relative to control; type: toxicity
[27] = system: Klebsiella pneumoniae; assay: Antibacterial activity against Klebsiella pneumoniae ATCC BAA-1898 assessed as inhibition of bacterial growth incubated for 18 to 20 hrs in presence of iron-depleted CAMHB medium by two fold serial dilution assay; type: functional; details: time 18-20 hrs
[28] = system: Acinetobacter baumannii; assay: Antibacterial activity against OXA-23 producing multidrug-resistant Acinetobacter baumannii clinical isolate 15-4 assessed as inhibition of bacterial growth incubated for 18 to 20 hrs by two fold serial dilution assay; type: functional; details: time 18-20 hrs
[29] = system: Acinetobacter baumannii; assay: Antibacterial activity against OXA-23 producing multidrug-resistant Acinetobacter baumannii clinical isolate 15-5 assessed as inhibition of bacterial growth incubated for 18 to 20 hrs by two fold serial dilution assay; type: functional; details: time 18-20 hrs
[30] = system: Acinetobacter baumannii; assay: Antibacterial activity against OXA-23 producing multidrug-resistant Acinetobacter baumannii clinical isolate 15-1 assessed as inhibition of bacterial growth incubated for 18 to 20 hrs by two fold serial dilution assay; type: functional; details: time 18-20 hrs
[31] = AUC (0 to infinity) in ICR mouse at 20 mg/kg,iv administration measured upto 6 hrs by LC-MS/MS analysis; type: ADME, organism-based; details: in vivo
[32] = system: Acinetobacter baumannii; assay: Antibacterial activity against OXA-23 producing multidrug-resistant Acinetobacter baumannii clinical isolate 15-3 assessed as inhibition of bacterial growth incubated for 18 to 20 hrs by two fold serial dilution assay; type: functional; details: time 18-20 hrs
[33] = Clearance in ICR mouse at 20 mg/kg,iv administration measured upto 6 hrs by LC-MS/MS analysis; type: ADME, organism-based; details: in vivo
[34] = Half life in ICR mouse at 20 mg/kg,iv administration measured upto 6 hrs by LC-MS/MS analysis; type: ADME, organism-based; details: in vivo
[35] = Volume of distribution at steady state in ICR mouse at 20 mg/kg,iv administration measured upto 6 hrs by LC-MS/MS analysis; type: ADME, organism-based; details: in vivo, read-out: Vdss
[36] = MRT in ICR mouse at 20 mg/kg,iv administration measured upto 6 hrs by LC-MS/MS analysis; type: ADME, organism-based; details: in vivo
[37] = system: Acinetobacter baumannii; assay: Antibacterial activity against OXA-23 producing multidrug-resistant Acinetobacter baumannii clinical isolate 15-2 assessed as inhibition of bacterial growth incubated for 18 to 20 hrs by two fold serial dilution assay; type: functional; details: time 18-20 hrs
[38] = Plasma protein binding in mouse incubated for 35 mins by LC-MS/MS analysis; type: ADME, cell-free; details: read-out: PPB (converted)

Sequence of hERG (KCNH2) (Q12809 whole entry): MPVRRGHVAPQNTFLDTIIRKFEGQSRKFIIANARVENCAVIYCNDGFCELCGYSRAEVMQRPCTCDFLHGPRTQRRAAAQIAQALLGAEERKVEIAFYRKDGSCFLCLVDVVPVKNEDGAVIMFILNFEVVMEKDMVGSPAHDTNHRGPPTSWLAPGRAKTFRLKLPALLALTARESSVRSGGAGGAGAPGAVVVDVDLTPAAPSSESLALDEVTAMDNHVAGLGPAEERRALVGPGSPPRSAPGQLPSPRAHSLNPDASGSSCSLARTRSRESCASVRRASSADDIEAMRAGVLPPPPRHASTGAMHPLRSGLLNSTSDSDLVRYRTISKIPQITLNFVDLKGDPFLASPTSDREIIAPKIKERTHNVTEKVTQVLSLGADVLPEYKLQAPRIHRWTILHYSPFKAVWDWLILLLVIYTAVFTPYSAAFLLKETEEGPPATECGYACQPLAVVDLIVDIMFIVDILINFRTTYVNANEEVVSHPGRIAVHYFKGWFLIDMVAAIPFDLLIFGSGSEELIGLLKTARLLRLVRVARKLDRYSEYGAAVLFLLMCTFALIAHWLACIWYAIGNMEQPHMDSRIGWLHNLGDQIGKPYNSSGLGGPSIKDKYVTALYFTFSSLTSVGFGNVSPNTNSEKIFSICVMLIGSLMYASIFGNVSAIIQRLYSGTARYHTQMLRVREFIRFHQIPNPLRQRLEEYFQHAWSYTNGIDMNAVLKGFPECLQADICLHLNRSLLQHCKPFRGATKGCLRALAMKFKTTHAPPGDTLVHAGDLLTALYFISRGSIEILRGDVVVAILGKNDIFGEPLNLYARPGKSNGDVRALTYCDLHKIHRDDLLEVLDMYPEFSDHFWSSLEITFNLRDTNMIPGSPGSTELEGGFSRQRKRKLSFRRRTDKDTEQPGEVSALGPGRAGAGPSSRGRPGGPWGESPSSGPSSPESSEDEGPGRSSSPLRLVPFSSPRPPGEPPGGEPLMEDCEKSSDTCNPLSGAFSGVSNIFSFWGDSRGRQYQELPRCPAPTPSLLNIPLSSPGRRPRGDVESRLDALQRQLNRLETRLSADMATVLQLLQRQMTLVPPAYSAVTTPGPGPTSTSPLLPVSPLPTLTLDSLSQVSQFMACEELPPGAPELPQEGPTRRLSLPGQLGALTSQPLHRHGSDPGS
Sequence of Voltage-gated inwardly rectifying potassium channel KCNH2 (Q12809 whole entry): as above

Compound | MIC [1] | MIC [2] | MIC [3] | MIC [4] | MIC [5] | MIC [6] | MIC [7] | MIC [9] | IC50 [10] | MIC [11] | MIC [13] | MIC [14] | MIC [16] | MIC [19] | MIC [20] | MIC [21] | MIC [22] | MIC [24] | inhibition at 40 µM [26] | MIC [27] | further results
Nc1nc(/C(=N/O[C@H](C(=O)O)C2CCC(F)(F)CC2)C(=O)N[C@@H]2C(=O)N3C(C(=O)O)=C(CSCCNC(=O)c4ccc(O)c(O)c4Cl)CS[C@H]23)cs1.O=C(O)C(F)(F)F | 8 µg/mL | 1 µg/mL | 0.5 µg/mL | 1 µg/mL | 0.25 µg/mL | 1 µg/mL | 64 µg/mL | 2 µg/mL | > 40 µM | 0.25 µg/mL | 0.25 µg/mL | 0.125 µg/mL | 1 µg/mL | 1 µg/mL | 0.125 µg/mL | 0.125 µg/mL | 0.25 µg/mL | 0.25 µg/mL | 23.8% | 2 µg/mL | MIC [8]: 0.5 µg/mL; MIC [12]: 2 µg/mL; MIC [15]: 1 µg/mL; MIC [17]: 0.5 µg/mL; MIC [18]: 0.5 µg/mL; MIC [23]: 8 µg/mL; MIC [25]: 0.5 µg/mL
Nc1nc(/C(=N/OC(C(=O)O)C2CCC(F)(F)CC2)C(=O)N[C@@H]2C(=O)N3C(C(=O)O)=C(CSCCNC(=O)c4ccc(O)c(O)c4Cl)CS[C@H]23)cs1.O=C(O)C(F)(F)F (some centres undefined) | 8 µg/mL | 0.5 µg/mL | 0.25 µg/mL | 0.5 µg/mL | – | 0.5 µg/mL | 4 µg/mL | 2 µg/mL | > 40 µM | 2 µg/mL | 1 µg/mL | 0.25 µg/mL | 0.5 µg/mL | 0.25 µg/mL | ≤ 0.03 µg/mL | 0.125 µg/mL | 0.5 µg/mL | 1 µg/mL | 16.8% | 2 µg/mL | MIC [28]: 4 µg/mL; MIC [29]: 2 µg/mL; MIC [30]: 4 µg/mL; AUC(0-inf) [31]: 10400 ng·h/mL; MIC [32]: 4 µg/mL; clearance [33]: 33.9 mL/min/kg; half-life [34]: 188 min; Vd [35]: 1.59 L/kg; MRT [36]: 45.6 min; MIC [37]: 2 µg/mL
C[C@@](O/N=C(\C(=O)N[C@@H]1C(=O)N2C(C(=O)O)=C(CSCCNC(=O)c3ccc(O)c(O)c3Cl)CS[C@H]12)c1nc(N)sc1Cl)(C(=O)O)C(F)(F)F.O=C(O)C(F)(F)F | 16 µg/mL | 0.25 µg/mL | ≤ 0.03 µg/mL | 0.5 µg/mL | 0.125 µg/mL | 0.5 µg/mL | 8 µg/mL | 0.5 µg/mL | > 40 µM | 0.25 µg/mL | 0.5 µg/mL | 0.125 µg/mL | 0.5 µg/mL | 0.125 µg/mL | 0.06 µg/mL | ≤ 0.03 µg/mL | 0.06 µg/mL | 0.06 µg/mL | 40.5% | 4 µg/mL | fraction unbound at 35 min [38]: 0.066; MIC [8]: 0.5 µg/mL; MIC [12]: 0.25 µg/mL; AUC(0-inf) [31]: 968 ng·h/mL; MIC [15]: 0.125 µg/mL; clearance [33]: 397 mL/min/kg; MIC [17]: 0.5 µg/mL; MIC [18]: 0.5 µg/mL; half-life [34]: 18 min; Vd [35]: 7.74 L/kg; MIC [23]: 1 µg/mL; MIC [25]: 0.06 µg/mL; MRT [36]: 18 min
